The record followed here is patent US9814720B2, “Compositions and methods of inhibiting IL-17 expression of neutrophils” (priority 2014, dated 2017).

Molecules are shown by their SMILES.

Assay [1] deals with IL-17RC. Briefly: IL-17RC gene expression by qPCR in IL-6/23-stimulated human neutrophils. It is filed as cell-based. To be noted: IL-6/23 1 h, FIG. 6B. The procedure:
Neutrophils were isolated from peripheral blood of healthy donors. Peripheral blood was incubated in 3% Dextran, and neutrophils isolated by Ficoll gradient centrifugation (Fisher Scientific), with neutrophil purity determined by staining with Wright-Giemsa.
(§1) Murine or human neutrophils were suspended at a density of 10^6 cells/ml and incubated with […] of recombinant mouse or human IL-6 and 2 μg/ml IL-23 in RPMI, and the cells were maintained for 1-3 h at 37° C. in 5% CO2. Various inhibitors were used for assessing STAT3 activation. For STAT3, neutrophils were treated with either the STAT3-SH2 inhibitor, Stattic (20 μM) obtained from Tocris, or the JAK-1, 2 inhibitor, INC424, (aka Ruxolitinib; 20 μM (Selleck BioChem)). For the determination of RORγt-dependent signaling, SR1001 (20 μM; Sigma) was used, which inhibits RORγt binding to the IL-17 promoter site. All inhibitors were added to neutrophils 2 h prior to recombinant IL-6 and IL-23 stimulation.
(§2) Neutrophil and corneal cell RNA was extracted using the RNeasy mini kit according to the manufacturer's directions (Qiagen, Valencia, Calif.). The quality of RNA was checked by spectrophotometry, and only samples with a 260/280 ratio of 2.0 were used to generate cDNA. The SuperScript First Strand synthesis system (Invitrogen) was used to generate cDNA according to the manufacturer's directions.
(§3) The SYBR green system (Applied Biosystems, Carlsbad, Calif.) was utilized for quantitative PCR (qPCR) using ABI Biosystems. PCR products were then run on a 1% agarose gel, and visualized using ethidium bromide. PCR products were compared to Actb (encoding the β-actin gene) or GAPDH as the controls for gel loading.
(In general: In qPCR the cycle at which signal appears reflects the starting amount.)

Assay [2] has as its system IL-17RC. The assay can be described thus: IL-17RC gene expression by qPCR in IL-6/23-stimulated murine neutrophils. It is filed as cell-based. Particulars: IL-6/23 1 h, FIG. 6A.
From the text: Total bone marrow-derived cells were isolated from mouse femurs and tibias by flushing with RPMI and an 18-gauge needle. Erythrocytes were lysed with 1× lysis buffer (eBioscience), and bone marrow cells were separated on a Percoll (Fisher) gradient by density centrifugation (52%, 69%, and 78%). Cells at the 69-78% interface were harvested, and neutrophil purity (>98%) confirmed by flow cytometry and Wright-Giemsa staining.
as §1, §2, §3

The test system of the next assay is IL-17A. The assay can be described thus: IL-17A expression in IL-6/23-stimulated murine bone marrow neutrophils (qPCR, ELISA, intracellular flow cytometry). It is filed as cell-based, C57BL/6 mice. Particulars: discussion restatement, species not stated. The source says:
Total bone marrow-derived cells were isolated from mouse femurs and tibias by flushing with RPMI and an 18-gauge needle. Erythrocytes were lysed with 1× lysis buffer (eBioscience), and bone marrow cells were separated on a Percoll (Fisher) gradient by density centrifugation (52%, 69%, and 78%). Cells at the 69-78% interface were harvested, and neutrophil purity (>98%) confirmed by flow cytometry and Wright-Giemsa staining. IL-17A protein production was quantified by 2-site ELISA, according to the manufacturer's directions (R&D Biosciences). Murine or human neutrophils were suspended at a density of 10^6 cells/ml and incubated with […] of recombinant mouse or human IL-6 and 2 μg/ml IL-23 in RPMI, and the cells were maintained for 1-3 h at 37° C. in 5% CO2. Various inhibitors were used for assessing STAT3 activation. […] For the determination of RORγt-dependent signaling, SR1001 (20 μM; Sigma) was used, which inhibits RORγt binding to the IL-17 promoter site. All inhibitors were added to neutrophils 2 h prior to recombinant IL-6 and IL-23 stimulation. […] Ten corneas were pooled and analyzed by intracellular flow cytometry. […] Cells were analyzed using a C6 Accuri flow cytometer (BD). […] The SYBR green system (Applied Biosystems, Carlsbad, Calif.) was utilized for quantitative PCR (qPCR) using ABI Biosystems. […]

The test system of assay [3] is A. fumigatus hyphae. The assay can be described thus: In vitro fungal killing assay (hyphal coincubation) with human neutrophils. It is filed as cell-based, Aspergillus fumigatus. To be noted: IL-6/23-stimulated, inhibitor 20 μM, FIG. 6F. The source says:
(§4) Aspergillus strains—For cornea infections and in vitro fungal killing assays, an RFP expressing strain of A. fumigatus (Af-dsRed) was used. This strain is gpdA promoter driven to constitutively express monomeric dsRed. For subcutaneous “priming” injections, heat-killed, swollen conidia Aspergillus fumigatus strain Af-BP was used. For the Aspergillus hyphal extract used in ROS assay, A. fumigatus strain Af-BP hyphae were pulverized in liquid nitrogen, filtered through a 30 μm pre-separation filter (Miltenyi Biotec) and protein measured by the BCA method (Pierce). Aspergillus hyphal extracts (AspHE) were stored at −20° C. and used at a final concentration of 1 mg/ml.
(§5) A hyphal coincubation assay was used to study the ability of murine and human neutrophils to inhibit A. fumigatus hyphal growth as described. Briefly, 12,500 A. fumigatus dsRed expressing conidia (strain Af-dsRed) per 200 μl Sabouraud dextrose media were added to wells of black-walled 96 well plates with an optically clear bottom (CoStar 3720). After 6 h, the conidia had germinated and the hyphae became adherent to the wells, at which time the medium was removed.
(§6) Murine and human neutrophils were incubated with p-STAT3 (20 μM Stattic or 20 μM INC424) or RORγt inhibitors (20 μM SR1001) for 2 h. Then the cells were stimulated with […] of rIL-6 and 2 μg/ml of rIL-23 for 3 h, washed, and 2×10^5 bone marrow-derived murine neutrophils or 10^5 human peripheral blood neutrophils, with or without recombinant IL-17A, were added to each well with growing hyphae. RPMI media was used as positive control (unimpaired growth), and PBS was used as a negative control (no growth (data not shown)). After 16 h the wells were washed with PBS and the dsRed fungal mass was quantified in a 96-well fluorometer at 550/600 nm excitation/emission filter (Synergy HT, Biotek).

The subject of assay [4] is human peripheral blood neutrophils. The assay can be described thus: ROS production (CFDA) by human peripheral blood neutrophils incubated with Aspergillus hyphae. It is filed as cell-based. To be noted: IL-6/23-stimulated, inhibitor 20 μM, FIG. 6E. As to the method: as §6
(§7) In vitro ROS production measured by CFDA was previously described. Briefly, 100 μg/100 μl of A. fumigatus hyphal extract (AspHE) were incubated with 2×10^5 murine or human neutrophils. Neutrophils were treated for 1 h with 1 μM Carboxyfluorescein diacetate (H2CFDA (Sigma)), which will fluoresce following ROS oxidation. Neutrophils were collected and analyzed by flow cytometry. H2CFDA pulsed neutrophils that had not been incubated with AspHE were used to set the ROS histogram gate. The average mean intensity was calculated by Accuri flow software and graphed in Prism.

Assay [5] relates to bone marrow-derived murine neutrophils. Briefly: ROS production (CFDA) by murine bone marrow neutrophils incubated with Aspergillus hyphae. In kind it is cell-based, C57BL/6 mice. To be noted: IL-6/23-stimulated, inhibitor 20 μM, FIG. 6C. As to the method:
as §6, §7

In assay [6] the test system is A. fumigatus hyphae. The assay can be described thus: In vitro fungal killing assay (hyphal coincubation) with murine neutrophils. Particulars: IL-6/23-stimulated, inhibitor 20 μM, FIG. 6D. It is filed as cell-based, Aspergillus fumigatus.
From the text: as §4, §5, §6

For the compound `N#CC[C@H](C1CCCC1)n1cc(-c2ncnc3[nH]ccc23)cn1` [INC424, Ruxolitinib], the IL-17RC expression result with IL-17RC [1] and with IL-17RC [2] was “did not inhibit” each time.
As to `CC(=O)Nc1nc(C)c(S(=O)(=O)Nc2ccc(C(O)(C(F)(F)F)C(F)(F)F)cc2)s1` [SR1001], the IL-17RC expression entry in the assay on IL-17RC [1] and in the assay with IL-17RC [2] was “did not inhibit” throughout. The “IL-17 production in stimulated neutrophils” value in the assay on IL-17A is recorded as “ablated”. Besides, the fluorescent fungal mass result with A. fumigatus hyphae [3] (plus rhIL-17A) is on record as “decreased fungal mass”; in the assay on A. fumigatus hyphae [3] (without rhIL-17A) it was “no increase in ROS (FIG. 6E) or decrease in fluorescent fungal mass”. Further, the ROS production result is recorded as “increased ROS” in assay [4] (plus rhIL-17A), “no increase in ROS” in assay [4] (without rhIL-17A), “ROS production was increased” in assay [5] (plus rIL-17A) and “not increased above the level produced by naïve neutrophils” in assay [5] (without rIL-17A). Also, the hyphal killing activity result with A. fumigatus hyphae [6] (plus rIL-17A) is listed as “enhanced hyphal killing activity was detected”. In addition, in the assay with A. fumigatus hyphae [6] (without rIL-17A), the “hyphal growth (fluorescent fungal mass)” value was “did not further impede hyphal growth”.
